Patent US7939526B2, “Sulfone substituted imidazo ring ethers” (3M Innovative Properties Company, priority 2003, dated 2011)

SMILES	melting point [°C]
COCc1nc2c(N)nc3c(c2n1CC(C)(C)OCCS(C)(=O)=O)CCCC3 [Example 39, 2-(Methoxymethyl)-1-{2-methyl-2-[2-(methylsulfonyl)ethoxy]propyl}-6,7,8,9-tetrahydro-1H-imidazo[4,5-c]quinolin-4-amine]	195 to 197
CCOCc1nc2c(N)nc3cccnc3c2n1CC(C)(C)OCCS(C)(=O)=O [Example 40, 2-Ethoxymethyl-1-{2-[2-(methylsulfonyl)ethoxy]-2-methylpropyl}-1H-imidazo[4,5-c][1,5]naphthyridin-4-amine]	189 to 191
